Laboratory results published in patent US7973011B2, “Blockade of gamma-secretase activity to promote myelination by oligodendrocytes” (The Board of Trustees of the Leland Stanford Junior …, priority 2006, dated 2011).
Entries after “also recorded” stand apart in the source; their conditions may differ. Where two headings read alike, the source gives them in different places.

Columns and labels:
γ-secretase [1] = biological target: T1, γ-secretase (Homo sapiens, UniProt P49768); settings: read-out: Cell-free; cited from earlier work
γ-secretase active site = γ-secretase active site (Homo sapiens, UniProt P49768); settings: cited from earlier work
γ-secretase [2] = biological target: T1, γ-secretase; settings: read-out: In cells; cited from earlier work
[3] = system: Notch1f/f OPCs on RGC reaggregates; assay: Myelination by floxxed Notch1 OPCs (AdCre/AdEmpty) cocultured with RGC reaggregates; assay type: cell-based, mouse; settings: 1 μM DAPT, six days of coculture, with or without glial Notch1
Method: FIG. 5. […] (A-C) Infection of OPCs from floxxed Notch1 mice (Notch1^f/f) with a recombinant adenovirus for expression of Cre recombinase (AdCre) results in rapid reduction of Notch1 protein. Notch1^f/f-OPCs, purified by immunopanning with anti-PDGFRα, were cultured for 2 days prior to infection for 24 hours with AdCre or a control virus (AdEmpty) at a multiplicity of infection of 10. The next day, cells were re-plated on RGC reaggregate cultures and on coverslips for analysis of Notch1 knockout, which was assessed by immunostaining (a,b) and Western blot analysis 24 hours later (c).
Conditional knockout cells and infection with AdCre. OPCs were purified from P9 Notch1 conditional knockout (gift of A. Rosenthal, Genentech) and presenilin double conditional knockout (gift of Jie Shen, Brigham and Women's hospital) mouse brains by a slight modification of the panning protocol for rat cells as described previously. The first panning dish was coated with mouse anti-mouse Thy1.2 (Serotec) rather than Ran-2. Mouse OPCs were plated on PDL-coated flasks in defined proliferation medium (DMEM supplemented with B27, insulin, 10 ng/ml PDGF, 1 ng/ml NT3, 10 ng/ml CNTF, and forskolin) for 2 days and then passaged onto PDL-coated tissue culture plates at a density of 1 million cells per plate. […]

[4] = system: oligodendrocytes in OPC-RGC reaggregate cocultures; assay: OPC-RGC reaggregate coculture myelination (MBP/NG2 immunostaining); assay type: cell-based, rat
Method: Purification of RGCs. Retinal ganglion cells (RGCs) were purified to >99.5% homogeneity from two- to three-litters of 5-day-old (P5) rat retinae by immunopanning as previously described. Briefly, retinae were digested with papain at 37° C. Following gentle trituration, cells were resuspended in a panning buffer containing insulin (5 μg/ml) and then incubated at room temperature with rabbit anti-macrophage antibodies. Retinal cells were incubated at room temperature sequentially on three immunopanning dishes: two coated with anti-rabbit secondary antibodies (to negatively select macrophages) and the third with T11D7 anti-Thy1 mAb. RGCs were released from the final panning dish with trypsin (Sigma).
To produce reaggregates, RGCs were plated at high density (>1,000 cells/μl) in 400 μl RGC growth medium in wells an 8-well chamber-slide (Nunc) coated with a surface that is not strongly adherent for RGCs (Permanox). One- to three-hours after plating, RGCs were resuspended gently to promote interaction and reaggregation, and this was repeated the following day. Following two days of culture at high density, reaggregates were collected and allowed to settle to separate them from dead RGCs, non-aggregated cells, and small reaggregates (<10 cells). […]

[5] = system: dorsal root ganglion (DRG) neurons and oligodendrocytes; assay: Myelination of dorsal root ganglion neurons by oligodendrocytes; assay type: cell-based
PS-1 = PS-1 (Homo sapiens, UniProt P49768); settings: cited from earlier work
PS-2 = PS-2 (Homo sapiens, UniProt P49810); settings: cited from earlier work
gamma-secretase = gamma-secretase (Homo sapiens, UniProt P49768); settings: recombinant APP C100 substrate; cited from earlier work

Molecule	IC50 (γ-secretase [1])	Displacement (γ-secretase active site)	IC50 (γ-secretase [2])	also measured
C[C@@H](NC(=O)Cc1cc(F)cc(F)c1)C(=O)N[C@H]1N=C(c2ccccc2)c2ccccc2N(C)C1=O [Compound E]	3 nM	YES	0.3 nM	–
C[C@H](NC(=O)Cc1cc(F)cc(F)c1)C(=O)N[C@H](C(=O)OC(C)(C)C)c1ccccc1 [DAPT]	10 nM	YES	20 nM	myelination (proportion of cells that myelinate) [3]: enhances myelination either in the presence (AdEmpty) or absence (AdCre) of glial Notch1; proportion of MBP+ oligodendrocytes that formed myelin segments ([4]; 1 μM DAPT, six-day cocultures): significantly increased; also recorded: the majority of oligodendrocytes myelinate; proportion of NG2+ OPCs or MBP+ oligodendrocytes ([4]; cocultures with DAPT): did not consistently alter; myelination of DRG neurons by oligodendrocytes [5]: profoundly enhanced myelination; inhibition of PS-1 (PS-1): inhibits; competition for the γ-secretase active site in a displacement assay (γ-secretase active site): can compete moderately; inhibition of PS-2 (PS-2): inhibits
CCC(C)C(NC(=O)C(CCCCNC(=O)OC(C)(C)C)NC(=O)OC(C)(C)C)C(=O)NC(CC(C)C)C1CO1 (stereo not drawn) [Epoxide]	20000 nM	–	20000 nM	–
COC(=O)[C@@H](NC(=O)[C@H](CC(C)C)NC(=O)N(Cc1ccccc1)C[C@@H](O)[C@H](Cc1ccccc1)NC(=O)OC(C)(C)C)C(C)C [III-31-C]	10 nM	YES	200 nM	–
CSc1ccc(/C=C2/C(C)=C(CC(=O)O)c3cc(F)ccc32)cc1 [Sulindac sulfide]	–	–	–	inhibition of gamma(42)-secretase activity (gamma-secretase): preferentially inhibits
(Z-LL)2-ketone	30000 nM	YES	> 100000 nM	–
Boc-D-Val-Gly-Aib-D-Val-D-Val-D-He-Aib-D-Thr(OBn)-D-Val-Aib-OMe [D-Helical peptide 294]	100 nM	–	3000 nM	–
